Measurements published in patent US20210283176A1, “CALCIUM BINDER FOR USE IN PREVENTING STILLBIRTH” (Nutreco IP Assets B.V, priority 2017, published 2021).

System: sows
Conditions: phosphoric acid 0.01 mol/liter (1 g/L), 25 sows, control 1.6 (24 sows)
Protocol: A calcium binder (phosphoric acid, PhA)) was added in a concentration of 0.01 mol/liter (corresponding to 1 g/L of phosphoric acid). The diets fed to the sows were the same.

O=P(O)(O)O [PhA, phosphoric acid]
Stillborn piglets, #: 1.1
